Assay results as given in ChEMBL document CHEMBL1154254, “Antiproliferative triterpenoid saponins of Dodonaea viscosa from the Madagascar dry forest” (J Nat Prod, 2009).

How the values were obtained:
Assay type in all cases: functional, cell-based
DU-145 = experiment: Antiproliferative activity against human DU145 cells
NCI-H460 = experiment: Antiproliferative activity against human NCI-H460 cells
HCC 2998 = experiment: Antiproliferative activity against human HCC2998 cells
A2780 = experiment: Antiproliferative activity against human A2780 cells after 2 days by alamar blue assay; conditions: A2780, 48 h
BT-549 = experiment: Antiproliferative activity against human BT549 cells

## C/C=C(/C)C(=O)O[C@H]1[C@H](OC(=O)/C(C)=C\C)[C@]2(CO)[C@H](O)[C@H](O)[C@]3(C)C(=CC[C@@H]4[C@@]5(C)CC[C@H](O[C@@H]6O[C@H](C(=O)O)[C@@H](O)[C@H](O[C@@H]7O[C@@H](CO)[C@H](O)[C@H]7O)[C@H]6O[C@@H]6O[C@H](CO)[C@@H](O)[C@H](O)[C@H]6O)C(C)(C)[C@@H]5CC[C@]43C)[C@@H]2CC1(C)C [DODONAEASIDE A]
DU-145
  IC50: > 5000 nM
NCI-H460
  IC50: > 5000 nM
HCC 2998
  IC50: > 5000 nM
A2780
  IC50: 790 nM
BT-549
  IC50: > 5000 nM

## C/C=C(/C)C(=O)O[C@H]1[C@H](OC(=O)[C@]2(C)O[C@@H]2C)C(C)(C)C[C@H]2C3=CC[C@@H]4[C@@]5(C)CC[C@H](O[C@@H]6O[C@H](C(=O)O)[C@@H](O)[C@H](O[C@@H]7O[C@@H](CO)[C@H](O)[C@H]7O)[C@H]6O[C@@H]6O[C@H](CO)[C@@H](O)[C@H](O)[C@H]6O)C(C)(C)[C@@H]5CC[C@@]4(C)[C@]3(C)C[C@@H](O)[C@]21CO [DODONAEASIDE B]
A2780
  IC50: 700 nM
